For assay [1], the system named is oHSV-1 (G207) in BV2 cells. Kind of assay: G207 replication in BV2 cells with chemical inhibitors, plaque forming assay. It counts as cell-based, HSV-1. The method, then: FIG. 12A contains bar graphs showing the results of BV2 cells that were pre-treated with indicated chemical compounds for 1-2 hours and then infected with oHSV-1 at an MOI of 1. Viruses were harvested after 48 hours of oHSV-1 (G207) and indicated chemical inhibitor treatment.
FIG. 12F is a bar graph showing the results of BV2 cells that were pre-treated with indicated chemical compounds for 1-2 hours and then infected with oHSV-1 at an MOI of 1. Viruses were harvested after 48 hours of oHSV-1 (G207) and indicated chemical inhibitor treatment. After 48 hours of treatment with oHSV-1 (G207) and C16, viruses were harvested and titrated by plaque forming assay on vero cells.
(§1) U87 (5×104) alone or U87+microglia co-culture (5×104+5×104) or BV2 microglia cells (5×104) alone were seeded into a 24-well plate. After overnight incubation (to allow the cells to attach), cells were pretreated with indicated concentration of NFkB inhibitor, Bay-11 (Santa Cruz, Canada) or an indicated concentration of imidazolo-oxindole derivative C16 (Milipore, Canada) or vehicle for 1-2 hours. The cells were then infected with oHSV-1 (G207 or HrR3) virus at a MOI of 1 in presence of chemical inhibitors for another 2 days. The viruses were harvested and titrated in vero cells by plaque forming assay in 12-well plates by triplicates.
The effects of a PKR inhibitor (C16), a NFkappaB inhibitor (Bay11), and an iNOS inhibitor (aminoguanidine hydrochloride) were tested on G207 replication in BV2 cells (Example 15). […] To verify that C16-mediated viral gene transcriptional augmentation is not due to deletions in ICP34.5 and/or ICP6 in G207, the effect of C16 on wild type (KOS) and ICP6 mutated (HrR3) HSV-1 infected BV2 cells was also examined. […] Finally, whether C16 can overcome this microglia-mediated suppression of viral replication in glioma cells was examined.

Another assay concerns pSTAT1 (Tyr701). Kind of assay: Western blot of STAT 1 / pSTAT1 (Tyr701) in BV2 microglia cells. It counts as cell-based, mouse. The method, then: BV2 cells were pre-treated with vehicle or C16 (1 μM) for 2 hours and then incubated with vehicle or oHSV-1 (G207) at an MOI of 1 or oHSV-1 and C16 combination for 24 hours. Total protein was harvested and subjected to western blot assay. β-actin expression was used for loading control (means±SE).
BV2 cells were treated with either vehicle or Lps (1 μg/ml) or Lps (1 μg/ml) with C16 (1 μM) for 24 hours. Total protein was harvested and subjected to western blot assay. β-actin expression was used for loading control (means±SE).
Total protein was harvested with sample buffer (125 mM Tris-HCL, 50% Glycerol, […] and 5% 2-mercaptoethanol) and boiled for 5 minutes. Protein samples were subjected to SDS-PAGE (8% gel), transferred to nitrocellulose membranes and blocked in 5% nonfat milk (Bio Rad) in TBS-Tween 20 (TBS-T) for 1 hour at room temperature. The membranes were then incubated with primary antibody against β-actin at 1:1000 (Cell Signaling, Danvers, Mass.) or anti-STAT1 antibody at 1:1000 (Cell Signaling, Danvers, Mass.) or anti-STAT3 antibody at 1:1000 (Cell Signaling, Danvers, Mass.) or anti-phospho STAT1 antibody (Tyr701) at 1:1000 (Cell Signaling, Danvers, Mass.) or anti-phospho STAT3 antibody (Tyr705) at 1:1500 (Cell Signaling, Danvers, Mass.) or anti-phosphor-eIF2a antibody (ser51) at 1:1000 (Cell Signaling, Danvers, Mass.) or anti-ICP27 antibody at 1:1000 (Abcam, Cambridge, Mass.) or anti-ICP4 antibody at 1:750 (Abcam, Cambridge, Mass.) for overnight at 4° C. The membranes were washed the next day with TBS-T three times and incubated with corresponding secondary antibody at 1:3000 (Perkim Elmer, Boston, Mass.), for 1 hour at room temperature. Membranes were washed with TBS-T three times before visualization using ECL reagent (Perkim Elmer, Boston, Mass.) and VersaDoc imaging system (Bio-Rad). Band density was measured by using ImageJ software (NIH, Bethesda, Md.).
(In general: In western blotting, separated proteins are transferred to a membrane and probed.)

Assay [2] concerns G207 in U87 and MG co-culture. The experiment in a line: G207 replication in glioma-microglia co-cultures treated with C16. It counts as cell-based, HSV-1. The settings on record: 0.5 μM of C16. On the procedure:
FIG. 12B depicts an electrophoresis gel showing total proteins that were harvested from G2O7 infected microglia cells at 24 hours post treatment with either 1 μM of C16, 1 μM of Bay11, or 100 μM of AG. ICP27, ICP4, and […] expression was measured by western blot assay. U87 and MG co-culture were pretreated with 0.5 μM of C16 for 1 hour.
FIG. 12D is a bar graph showing G207 viral replication increasing by 33% in glioma-microglia co-cultures treated with C16.
as §1
The effects of a PKR inhibitor (C16), a NFkappaB inhibitor (Bay11), and an iNOS inhibitor (aminoguanidine hydrochloride) were tested on G207 replication in BV2 cells (Example 15). […]

In another assay the test system is U373 cells. The experiment in a line: MTT cytotoxicity assay, U373 cells. It counts as cell-based. Conditions: Homo sapiens, U373 MG, 72 hours, read-out: Inhibitory concentration 50% (IC50). On the procedure:
FIGS. 1A-1B are graphs that show an anti-tumor effect of nifuroxazide. (FIG. 1A) Cells were treated with indicated concentration of nifuroxazide for 72 hours. Cytotoxicity was measured by using MTT assay. (FIG. 1B) Subcutaneously U87 tumor bearing mice were peritoneally injected with indicated doses of nifuroxazide. Tumor size was measured using calipers at day 7 post nifuroxazide treatment.
In this example, the antitumor effect of nifuroxazide is evaluated in different tumor cells. Cells were treated with nifuroxazide for 72 hours (FIG. 1A). […] To verify the anti-tumor efficacy of nifuroxazide in vivo, animals with subcutaneous U87 tumor implants were injected in the peritoneum with vehicle, 1 mg/kg nifuroxazide and 50 mg/kg nifuroxazide. […] Tumor volume was reduced around 25% and 60% after 7 days treatment with 1 mg/kg nifuroxazide and 50 mg/kg nifuroxazide respectively (FIG. 1B).
Cells were seeded in a 96-well plate at a density of 1×104 (U87). After overnight incubation, cells were treated with only vehicle or indicated MOI of virus or indicated concentration of drugs or reagents. After 2 to 3 days of treatment cell viability was measured by MTT assay (Sigma, Canada) according to the manufacturer's instruction. […] After overnight incubation with lysis buffer, cell viability was measured at 595 nm using a plate reader (Envision 2103 Multilabel reader, Perkin Elmer).
Background: Formazan colour is commonly taken as a measure of viable cells.

Each structure is given as a SMILES string.

Turning to `O=C1Nc2ccc3ncsc3c2/C1=C/c1c[nH]cn1` [C16, 6,8-Dihydro-8-(1H-imidazol-5-ylmethylene)-7H-pyrrolo[2,3-g]benzothiazol-7-one], the enhanced the replication in assay [1] (1 μM of C16, G207 MOI of 1, 48 hours) is 9 times; in assay [1] (10 μM of C16, G207 MOI of 1, 48 hours), 8 times. Besides, the “upregulation of pSTAT1 (Tyr701) induced by oHSV-1” value in the assay with pSTAT1 (Tyr701) (C16 1 μM, G207 MOI of 1, 24 hours) was “significantly suppress the upregulation”. In the assay on pSTAT1 (Tyr701) (G207 infected microglial cells), the “expression level of STAT 1” value is reported as “reduced after C16 treatment”. The “STAT 1 phosphorylation, LPS treated” value in the assay on pSTAT1 (Tyr701) (Lps 1 μg/ml, C16 1 μM, 24 hours) is given as “inhibition in STAT 1/3 phosphorylation”. In assay [2], the “G207 viral replication increased” value was 33%.
`O=C(N/N=C/c1ccc([N+](=O)[O-])o1)c1ccc(O)cc1` [nifuroxazide, Benzoic acid, 4-hydroxy-, [(5-nitro-2-furanyl)metylene]hydrazide]: in the assay with U373 cells, the IC50 was about 23 µM.

Source of the values: patent US20190307820A1, “COMPOSITIONS AND METHODS OF USING STAT1/3 INHIBITORS WITH ONCOLYTIC HERPES VIRUS” (priority 2016, published 2019).
